Experimental data as given in US12303497B2, “Anti-androgens for the treatment of metastatic castration-sensitive prostate cancer” (priority 2019, dated 2025).
Read-outs that look alike come from different tables or passages of the source.

Test system: patients with metastatic castration-sensitive prostate cancer (mCSPC)

CNC(=O)c1ccc(N2C(=S)N(c3cnc(C#N)c(C(F)(F)F)c3)C(=O)C23CCC3)cc1F [Apalutamide, 4-[7-(6-cyano-5-trifluoromethylpyridin-3-yl)-8-oxo-6-thioxo-5,7-diazaspiro[3.4]oct-5-yl]-2-fluoro-N-methylbenzamide]
16 (3.1) no. (%): TEAE: Blood alkaline phosphatase increased (All Grades)
91 (17.4) no. (%): TEAE: Arthralgia (All Grades) | TEAE: Back pain (All Grades)
0 no. (%): AE leading to discontinuation: Alanine aminotransferase increased (All Grades) | AE leading to discontinuation: Cardiac failure (All Grades) | AE leading to discontinuation: Cognitive disorder (All Grades) | AE leading to discontinuation: Dyspnea (All Grades) | AE leading to discontinuation: Hypothermia (All Grades) | AE leading to discontinuation: Intracranial hemorrhage (All Grades) | AE leading to discontinuation: Loss of consciousness (All Grades) | AE leading to discontinuation: Pleural effusion (All Grades) | AE leading to discontinuation: Pulmonary edema (All Grades) | AE leading to discontinuation: Respiratory failure (All Grades) | AE leading to discontinuation: Subdural hemorrhage (All Grades) | AE leading to discontinuation: Sudden death (All Grades) | AE leading to discontinuation: Suicide (All Grades) | AE leading to dose interruption: Angina unstable (All Grades) | AE leading to dose interruption: Bile duct obstruction (All Grades) | AE leading to dose interruption: Cardiac amyloidosis (All Grades) | AE leading to dose interruption: Cardiac disorder (All Grades) | AE leading to dose interruption: Cardiac failure (All Grades) | AE leading to dose interruption: Dehydration (All Grades) | AE leading to dose interruption: Diplegia (All Grades) | AE leading to dose interruption: Gastritis (All Grades) | AE leading to dose interruption: Hepatic failure (All Grades) | AE leading to dose interruption: Hydronephrosis (All Grades) | AE leading to dose interruption: Musculoskeletal stiffness (All Grades) | AE leading to dose interruption: Osteoarthritis (All Grades) | AE leading to dose interruption: Pathological fracture (All Grades) | AE leading to dose interruption: Peripheral swelling (All Grades) | AE leading to dose interruption: Renal injury (All Grades) | AE leading to dose interruption: Subdural hemorrhage (All Grades) | AE leading to dose interruption: Urethral stenosis (All Grades) | AE leading to dose interruption: Weight increased (All Grades) | AE leading to dose reduction: Aspartate aminotransferase or alanine aminotransferase increased (All Grades) | AE leading to dose reduction: Asthenia (All Grades) | AE leading to dose reduction: Lethargy (All Grades) | AE leading to dose reduction: Performance status decreased (All Grades) | AE leading to discontinuation: Alanine aminotransferase increased (Grade ≥3) | AE leading to discontinuation: Anxiety (Grade ≥3) | AE leading to discontinuation: Cardiac failure (Grade ≥3) | AE leading to discontinuation: Cognitive disorder (Grade ≥3) | AE leading to discontinuation: Dehydration (Grade ≥3) | AE leading to discontinuation: Dyspnea (Grade ≥3) | AE leading to discontinuation: Euphoric mood (Grade ≥3) | AE leading to discontinuation: Hot flush (Grade ≥3) | AE leading to discontinuation: Hypothermia (Grade ≥3) | AE leading to discontinuation: Intracranial hemorrhage (Grade ≥3)
37 (7.1) no. (%): Patients with treatment-emergent adverse events leading to dose reduction (All Grades) | TEAE: Asthenia (All Grades)
1 (0.2) no. (%): AE leading to discontinuation: Anxiety (All Grades) | AE leading to discontinuation: Atrial fibrillation (All Grades) | AE leading to discontinuation: Cardio-respiratory arrest (All Grades) | AE leading to discontinuation: Cardiogenic shock (All Grades) | AE leading to discontinuation: Cerebrovascular disorder (All Grades) | AE leading to discontinuation: Dehydration (All Grades) | AE leading to discontinuation: Euphoric mood (All Grades) | AE leading to discontinuation: Hot flush (All Grades) | AE leading to discontinuation: Infections (All Grades) | AE leading to discontinuation: Large intestinal ulcer perforation (All Grades) | AE leading to discontinuation: Lip swelling (All Grades) | AE leading to discontinuation: Parkinson's disease (All Grades) | AE leading to discontinuation: Pulmonary embolism (All Grades) | AE leading to discontinuation: Radiculopathy (All Grades) | AE leading to discontinuation: Sudden cardiac death (All Grades) | AE leading to dose interruption: Acute kidney injury (All Grades) | AE leading to dose interruption: Acute respiratory failure (All Grades) | AE leading to dose interruption: Allergy to chemicals (All Grades) | AE leading to dose interruption: Atrial fibrillation (All Grades) | AE leading to dose interruption: Blood alkaline phosphatase increased (All Grades) | AE leading to dose interruption: Cardiac failure congestive (All Grades) | AE leading to dose interruption: Cerebrovascular accident (All Grades) | AE leading to dose interruption: Cheilitis (All Grades) | AE leading to dose interruption: Chronic hepatitis (All Grades) | AE leading to dose interruption: Cognitive disorder (All Grades) | AE leading to dose interruption: Confusional state (All Grades) | AE leading to dose interruption: Constipation (All Grades) | AE leading to dose interruption: Depression (All Grades) | AE leading to dose interruption: Diabetes mellitus (All Grades) | AE leading to dose interruption: Diarrhea (All Grades) | AE leading to dose interruption: Dizziness (All Grades) | AE leading to dose interruption: Dyspnea (All Grades) | AE leading to dose interruption: Dysuria (All Grades) | AE leading to dose interruption: Edema (All Grades) | AE leading to dose interruption: Eyelid edema (All Grades) | AE leading to dose interruption: Facial edema (All Grades) | AE leading to dose interruption: Fall (All Grades) | AE leading to dose interruption: Febrile neutropenia (All Grades) | AE leading to dose interruption: Gamma-glutamyltransferase increased (All Grades) | AE leading to dose interruption: Gastric ulcer perforation (All Grades) | AE leading to dose interruption: General physical health deterioration (All Grades) | AE leading to dose interruption: Hallucination (All Grades) | AE leading to dose interruption: Headache (All Grades) | AE leading to dose interruption: Hematoma (All Grades) | AE leading to dose interruption: Hemorrhage intracranial (All Grades) | AE leading to dose interruption: Hemorrhagic erosive gastritis (All Grades) | AE leading to dose interruption: Hepatic cirrhosis (All Grades) | AE leading to dose interruption: Hip fracture (All Grades) | AE leading to dose interruption: Hot flush (All Grades) | AE leading to dose interruption: Hyperbilirubinemia (All Grades) | AE leading to dose interruption: Hypersensitivity (All Grades) | AE leading to dose interruption: Hypokalemia (All Grades) | AE leading to dose interruption: Hyponatremia (All Grades) | AE leading to dose interruption: Influenza-like illness (All Grades) | AE leading to dose interruption: Ischemic cardiac events (All Grades) | AE leading to dose interruption: Large intestinal ulcer perforation (All Grades) | AE leading to dose interruption: Mental status changes (All Grades) | AE leading to dose interruption: Muscular weakness (All Grades) | AE leading to dose interruption: Nausea (All Grades) | AE leading to dose interruption: Osteoporosis (All Grades) | AE leading to dose interruption: Peripheral edema (All Grades) | AE leading to dose interruption: Proctalgia (All Grades) | AE leading to dose interruption: Rheumatoid arthritis (All Grades) | AE leading to dose interruption: Seizure (All Grades) | AE leading to dose interruption: Spinal cord compression (All Grades) | AE leading to dose interruption: Stomatitis (All Grades) | AE leading to dose interruption: Subarachnoid hematoma (All Grades) | AE leading to dose interruption: Subarachnoid hemorrhage (All Grades) | AE leading to dose interruption: Syncope (All Grades) | AE leading to dose interruption: Thrombocytopenia (All Grades) | AE leading to dose interruption: Tongue ulceration (All Grades) | AE leading to dose interruption: Urinary incontinence (All Grades) | AE leading to dose interruption: Urinary tract obstruction (All Grades) | AE leading to dose interruption: Vertigo (All Grades) | AE leading to dose reduction: Cognitive disorder (All Grades) | AE leading to dose reduction: Dehydration (All Grades) | AE leading to dose reduction: General physical health deterioration (All Grades) | AE leading to dose reduction: Headache (All Grades) | AE leading to dose reduction: Hot flush (All Grades) | AE leading to dose reduction: Hypertension (All Grades) | AE leading to dose reduction: Pain (All Grades) | AE leading to dose reduction: Vertigo (All Grades) | AE leading to dose reduction: Weight decreased (All Grades) | AE leading to discontinuation: Atrial fibrillation (Grade ≥3) | AE leading to discontinuation: Cardio-respiratory arrest (Grade ≥3) | AE leading to discontinuation: Cardiogenic shock (Grade ≥3) | AE leading to discontinuation: Cerebrovascular disorder (Grade ≥3) | AE leading to discontinuation: Fatigue (Grade ≥3) | AE leading to discontinuation: Infections (Grade ≥3) | AE leading to discontinuation: Large intestinal ulcer perforation (Grade ≥3)
12 (2.3) no. (%): AE leading to discontinuation: Rash (grouped term) (All Grades)
1.3%: Grade ≥3 rash led to discontinuation (7 patients)
44 (8.4) no. (%): AE leading to dose interruption: Rash (grouped term) (All Grades)
2.3%: Skin rash led to treatment discontinuation (12 patients)
119 (22.7) no. (%): TEAE: Hot flush (All Grades)
4 (0.8) no. (%): AE leading to discontinuation: Fatigue (All Grades)
39 (7.4) no. (%): AE of special interest: Fall (All Grades)
104 (19.8) no. (%): Patients with treatment-emergent events leading to dose interruption (All Grades)
9 (1.7) no. (%): AE leading to dose interruption: Pain (grouped term) (All Grades)
8.4%: Skin rash led to dose interruption (44 patients)
33 (6.3) no. (%): AE of special interest: Fracture (grouped term) (All Grades)
28 (5.3) no. (%): AE leading to dose reduction: Rash (grouped term) (All Grades)
64 (12.2) no. (%): TEAE: Pain in extremity (All Grades)
3 (0.6) no. (%): AE leading to dose interruption: Asthenia (All Grades) | AE leading to dose interruption: Insomnia (All Grades) | AE leading to dose interruption: New cancer neoplasm (All Grades) | AE leading to dose interruption: Pyrexia (All Grades) | AE leading to dose interruption: Vomiting (All Grades) | AE of special interest: Seizure (grouped term) (All Grades)
47 (9.0) no. (%): TEAE: Constipation (All Grades)
54 (10.3) no. (%): TEAE: Weight increased (All Grades)
56 (10.7) no. (%): TEAE: Pruritus (All Grades)
2 (0.4) no. (%): AE leading to discontinuation: Ischemic cardiac events (All Grades) | AE leading to discontinuation: Seizure (All Grades) | AE leading to dose interruption: Anemia (All Grades) | AE leading to dose interruption: Anxiety (All Grades) | AE leading to dose interruption: Arthralgia (All Grades) | AE leading to dose interruption: Chronic obstructive pulmonary disease (All Grades) | AE leading to dose interruption: Decreased appetite (All Grades) | AE leading to dose interruption: Hematuria (All Grades) | AE leading to dose interruption: Hypertriglyceridemia (All Grades) | AE leading to dose interruption: Neutropenia (All Grades) | AE leading to dose interruption: Urinary retention (All Grades) | AE leading to dose reduction: Fatigue (All Grades) | AE leading to dose reduction: Neutropenia (All Grades) | AE leading to discontinuation: Ischemic cardiac events (Grade ≥3)
34 (6.5) no. (%): AE of special interest: Hypothyroidism (grouped term) (All Grades) | TEAE: Bone pain (All Grades) | TEAE: Rash generalized (All Grades)
13 (2.5) no. (%): TEAE: Urinary retention (All Grades)
93 (17.7) no. (%): TEAE: Hypertension (All Grades)
7 (1.3) no. (%): AE leading to discontinuation: New cancer neoplasm (All Grades) | AE leading to dose interruption: Aspartate aminotransferase or alanine aminotransferase increased (All Grades)
48 (9.2) no. (%): TEAE: Anemia (All Grades)
142 (27.1) no. (%): AE of special interest: Rash (grouped term) (All Grades)
42 (8.0) no. (%): Patients with treatment-emergent adverse events leading to discontinuation (All Grades)
6 (1.1) no. (%): AE leading to dose interruption: Fatigue (All Grades) | AE leading to dose interruption: Hypertension (All Grades) | AE leading to dose interruption: Infections (All Grades)
5.3%: Skin rash led to dose reduction (28 patients)
8.0%: Adverse events led to discontinuation (42 patients)
103 (19.7) no. (%): TEAE: Fatigue (All Grades)
